Source: patent publication US20050256132A1, “Use of ER selective NF-kB inhibitors for the treatment of sepsis” (priority 2003, published 2005)

Assays:
Assay type in all cases: cell-based, human
NF-κB = test: IL-1β stimulated NF-κB reporter activity in ERα expressing HAECT-1 cells; settings: 1 μM ICI, 1 μM compound 67, FIG. 1B
Protocol: (§1) HAECT-1 cells (Chadwick C C, et al., Proc Natl Acad Sciences, 2005, 102(7): 2543-2548) were cultured in EGM (GIBCO, Rockville, Md.) containing 10% FBS, 1% GlutaMAX and 0.1% Antimycotic-Antibiotic in Falcon T-175 culture flasks at 34° C. in 5% CO2 and infected for four hours with Ad5-wt-ER virus. After overnight recovery, the cells were infected for 2 hours with the Ad5-3x(NFκB).Luc or Ad5-IL6.Luc virus. Compound 67 and 2 ng/ml IL-1 were added to the cells for 15-20 h and the cell lysate was assayed for luciferase activity and evaluated for CK expression (Stanbio Laboratories, Texas). The values are reported as mean±SEM with n=4 from at least 3 independent experiments.

Creatine Kinase = test: Creatine kinase expression in Ad5-wt-ERα infected HAECT-1 cells (Table 1); settings: Homo sapiens, HAECT1, read-out: Creatine Kinase EC50
Protocol: T-175 flasks of 100% confluent HAECT-1 cells (immortalized human aortic endothelial cells) were washed with 8 mL of HBSS (HEPES buffered saline solution) and infected for four hours with 6 mL of a 1:10 dilution of Ad5-wt-hERα virus (an adenovirus transfection vector that mediates CMV promoter driven expression of human ERα) in phenol red free Endothelial Cell Basal medium (Clonetics, San Diego Calif., Catalog # CC-3129) containing 0.25% bovine serum albumin (EBM-BSA). After four hours, cells were washed with EBM-BSA and incubated overnight in the same medium. Following overnight incubation, cells were washed with EBM-BSA and infected for 2 hours with 6 mL of a 1:10 dilution of Ad5-3x(NF-κB).Luc virus (Adenovirus luciferase expression vector driven by 3 repeats of the MHC NF-κb site 5′ to the thymidine kinase promoter) in EBM-BSA. […]
ERα infected HAECT-1 cells or control cells were thawed, diluted 42× in warm EBM-BSA, plated into 96-well plates at 0.1 mL/well and incubated for 4 hours at 34° C. […] Luciferase was determined on a Wallac Victor Luminometer (Gaithersburg, Md.) using 10 μL of lysate and mixing with 100 μL of Promega Luciferase Assay reagent. Creatine kinase was determined from the rate of increase in A340 following addition of 100 μL of CK assay reagent (Sigma, cat. No 47-10) to the remainder of the cell lysate. […]

CK = CK activity in lysate of ERα expressing HAECT-1 cells; settings: FIG. 1D
Protocol: (A) The effect of compound 67 on NF-κB mediated luciferase reporter activity in HAECT-1 cells expressing ERα. […] (C) The effect of compound 67 on the human IL-6 promoter luciferase reporter activity in HAECT-1 cells expressing either ERα (squares) or ERβ (diamonds). (D) The remaining lysate from (A) was used to determine CK activity.
as §1

Row | SMILES | antagonism of the activity of compound 67 on NF-κB reporter (NF-κB) | EC50 (Creatine Kinase) [nM] | stimulation of CK activity (CK) | EC50 (CK; Homo sapiens, HAECT1) [nM]
1 | C[C@]12CC[C@@H]3c4ccc(O)cc4C[C@@H](CCCCCCCCC[S+]([O-])CCCC(F)(F)C(F)(F)F)[C@H]3[C@@H]1CC[C@@H]2O (stereo partly shown) [ICI 182,780, reference compound] | effectively antagonized | – | – | –
2 | C[C@]12CC[C@@H]3c4ccc(O)cc4CC[C@H]3[C@@H]1CC[C@@H]2O [Example E2, 17β-estradiol, reference compound] | – | 5.8 | approximately 1.7 fold | 2
